Experimental data published in the supplement of paper PMC10307832.

Assays:
Experiment in all cases: relative viability (nuclei count vs DMSO), 5 days (fraction); higher = more cells survive
[1] = compound: C1CN(CCC1C(C2=CC3=C(C=C2)OCO3)(C4=CC5=C(C=C4)OCO5)O)C(=O)OC6=CC=C(C=C6)[N+](=O)[O-] [JZL-184] + CC(=O)Nc1cccc(-n2c(=O)n(C3CC3)c(=O)c3c(Nc4ccc(I)cc4F)n(C)c(=O)c(C)c32)c1 [Trametinib] (partner 0.02 µM)
Summary of the method: (§1)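 Cells from lung cancer lines were seeded into 1536-well plates and, one day later, dosed by pin tool. Treatments were either a single drug or a fixed dose of an anchor drug with five library-drug doses (not always all listed) in √10 steps. After 5 days, nuclei were stained in a one-step fixation (final 0.05% Triton X-100, 1% formaldehyde, 1 ug/ml Hoechst) and counted on 4× images, and relative viability is the treated-to-vehicle nuclei ratio, as the median of duplicate plates.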

[2] = compound: C1CN(CCC1C(C2=CC3=C(C=C2)OCO3)(C4=CC5=C(C=C4)OCO5)O)C(=O)OC6=CC=C(C=C6)[N+](=O)[O-] [JZL-184] + CC1(C)CCC(c2ccc(Cl)cc2)=C(CN2CCN(c3ccc(C(=O)NS(=O)(=O)c4ccc(N[C@H](CCN5CCOCC5)CSc5ccccc5)c(S(=O)(=O)C(F)(F)F)c4)cc3)CC2)C1 [Navitoclax] (partner 0.5 µM)
Summary of the method: as §1

[3] = compound: C1CN(CCC1C(C2=CC3=C(C=C2)OCO3)(C4=CC5=C(C=C4)OCO5)O)C(=O)OC6=CC=C(C=C6)[N+](=O)[O-] [JZL-184] + COc1cccc2cc(-c3nc([C@H]4CC[C@H](C(=O)O)CC4)n4ncnc(N)c34)[nH]c12 [OSI-027] (partner 0.5 µM)
Summary of the method: as §1

[4] = compound: C1CN(CCC1C(C2=CC3=C(C=C2)OCO3)(C4=CC5=C(C=C4)OCO5)O)C(=O)OC6=CC=C(C=C6)[N+](=O)[O-] [JZL-184] + Cc1cc(Nc2cc(N3CCN(C)CC3)nc(Sc3ccc(NC(=O)C4CC4)cc3)n2)n[nH]1 [Tozasertib] (partner 0.1 µM)
Summary of the method: as §1

[5] = compound: C1CN(CCC1C(C2=CC3=C(C=C2)OCO3)(C4=CC5=C(C=C4)OCO5)O)C(=O)OC6=CC=C(C=C6)[N+](=O)[O-] [JZL-184] + O=C(c1cc(Cc2n[nH]c(=O)c3ccccc23)ccc1F)N1CCN(C(=O)C2CC2)CC1 [Olaparib] (partner 8 µM)
Summary of the method: as §1

Cell Line | relative viability ([1]; first compound 0.04 µM) | relative viability ([1]; first compound 0.4 µM) | relative viability ([1]; first compound 1.265 µM) | relative viability ([1]; first compound 4 µM) | relative viability ([2]; first compound 0.04 µM) | relative viability ([2]; first compound 0.4 µM) | relative viability ([2]; first compound 1.265 µM) | relative viability ([2]; first compound 4 µM) | relative viability ([3]; first compound 0.04 µM) | relative viability ([3]; first compound 0.4 µM) | relative viability ([3]; first compound 1.265 µM) | relative viability ([3]; first compound 4 µM) | relative viability ([4]; first compound 0.04 µM) | relative viability ([4]; first compound 0.4 µM) | relative viability ([4]; first compound 1.265 µM) | relative viability ([4]; first compound 4 µM) | relative viability ([5]; first compound 0.04 µM) | relative viability ([5]; first compound 0.4 µM) | relative viability ([5]; first compound 1.265 µM) | relative viability ([5]; first compound 4 µM)
NCI-H1650 | 0.778 | 0.403 | 0.801 | 0.657 | 1.64 | 1.08 | 1.39 | 1.06 | 0.674 | 0.504 | 0.837 | 0.608 | 0.417 | 0.325 | 0.432 | 0.257 | 0.867 | 0.72 | 0.87 | 0.74
NCI-H1651 | 0.848 | 0.872 | 0.787 | 0.848 | 1.07 | 0.99 | 1.07 | 1.12 | 0.684 | 0.664 | 0.855 | 0.794 | 0.771 | 0.703 | 0.689 | 0.668 | 0.24 | 0.176 | 0.196 | 0.207
NCI-H1666 | 0.888 | 0.828 | 0.856 | 0.839 | 1.02 | 0.825 | 1.16 | 1.02 | 0.974 | 0.908 | 0.903 | 0.866 | 0.603 | 0.626 | 0.581 | 0.598 | 0.755 | 0.716 | 0.712 | 0.735
NCI-H1734 | 0.721 | 0.611 | 0.72 | 0.606 | 0.991 | 0.799 | 0.901 | 0.843 | 0.621 | 0.615 | 0.718 | 0.594 | 0.265 | 0.231 | 0.255 | 0.247 | 0.674 | 0.589 | 0.627 | 0.547
NCI-H1755 | 0.748 | 0.747 | 0.802 | 0.77 | 1.01 | 0.954 | 1.01 | 0.918 | 0.672 | 0.699 | 0.709 | 0.745 | 0.545 | 0.575 | 0.601 | 0.453 | 0.812 | 0.896 | 0.891 | 0.895
NCI-H1793 | 0.433 | 0.481 | 0.455 | 0.438 | 0.351 | 0.426 | 0.502 | 0.38 | 0.26 | 0.263 | 0.319 | 0.259 | 0.289 | 0.385 | 0.409 | 0.233 | 0.978 | 0.911 | 0.933 | 0.861
NCI-H1915 | 0.301 | 0.293 | 0.328 | 0.297 | 0.819 | 0.749 | 0.794 | 0.722 | 0.659 | 0.604 | 0.698 | 0.585 | 0.491 | 0.41 | 0.461 | 0.376 | 0.262 | 0.264 | 0.273 | 0.233
NCI-H1944 | 0.438 | 0.385 | 0.452 | 0.417 | 0.948 | 1.08 | 1.08 | 1.02 | 0.421 | 0.397 | 0.448 | 0.412 | 0.283 | 0.251 | 0.281 | 0.248 | 0.402 | 0.351 | 0.401 | 0.444
NCI-H1975 | 0.314 | 0.33 | 0.349 | 0.33 | 1.3 | 0.967 | 1.2 | 1.05 | 0.842 | 0.759 | 0.764 | 0.654 | 0.757 | 0.686 | 0.869 | 0.634 | 0.849 | 0.726 | 0.876 | 0.694
NCI-H1993 | 0.496 | 0.51 | 0.517 | 0.559 | 0.906 | 0.884 | 1.06 | 1.03 | 0.523 | 0.498 | 0.497 | 0.532 | 0.554 | 0.582 | 0.593 | 0.555 | 1.11 | 1.05 | 1.13 | 0.966
NCI-H2009 | 0.228 | 0.276 | 0.329 | 0.301 | 1.18 | 0.951 | 1.17 | 1.17 | 0.764 | 0.574 | 0.694 | 0.653 | 0.798 | 0.699 | 0.758 | 0.651 | 0.785 | 0.696 | 0.734 | 0.642
NCI-H2023 | 0.717 | 0.612 | 0.568 | 0.54 | 1.07 | 0.942 | 1.02 | 0.963 | 0.407 | 0.381 | 0.405 | 0.317 | 0.356 | 0.318 | 0.345 | 0.296 | 0.529 | 0.466 | 0.484 | 0.44
NCI-H2085 |  | 0.515 | 0.527 | 0.603 | 1.1 | 1.18 | 1.13 | 1.08 | 0.444 | 0.592 | 0.795 | 0.649 |  | 0.812 | 0.845 | 0.753 |  | 0.743 | 0.815 | 0.704
NCI-H2087 | 0.181 | 0.173 | 0.182 | 0.188 | 1 | 0.997 | 1.18 | 0.996 | 0.519 | 0.514 | 0.579 | 0.436 | 0.23 | 0.229 | 0.268 | 0.244 | 0.714 | 0.585 | 0.665 | 0.517
NCI-H2126 | 0.506 | 0.603 | 0.602 | 0.503 | 0.847 | 0.807 | 0.897 | 0.873 | 0.636 | 0.64 | 0.804 | 0.683 | 0.89 | 0.749 | 0.883 | 0.767 | 0.892 | 0.891 | 0.975 | 0.925
